Measurements from ChEMBL document CHEMBL1158702, “Cytotoxic 4-phenylcoumarins from the leaves of Marila pluricostata” (2005).
Values after ≈ are worked out from the molar mass of the structure shown.

Columns and labels:
Type in all cases: functional
SF-268 = assay: Cytotoxicity against human SF268 cells
MCF7 = assay: Cytotoxicity against human MCF7 cells
NCI-H460 = assay: Cytotoxicity against human H460 cells

For `CCC(=O)c1c2c(c3oc(=O)cc(-c4ccccc4)c3c1O)CCC(C)(C)O2`, the GI50 (SF-268) was 6.8 µg/mL (≈ 18 µM), the GI50 (MCF7) was 4.7 µg/mL (≈ 12.4 µM) and the GI50 (NCI-H460) was 5.7 µg/mL (≈ 15.1 µM).

In the case of `CC(C)=CCc1c(O)cc(O)c2c(-c3ccccc3)cc(=O)oc12`, the GI50 (SF-268) is reported as 4.8 µg/mL (≈ 14.9 µM), the GI50 (MCF7) is reported as 3.4 µg/mL (≈ 10.5 µM) and the GI50 (NCI-H460) is reported as 4.4 µg/mL (≈ 13.6 µM).

`CC(C)=CCc1c(O)c(C(=O)C(C)C)c2oc(=O)cc(-c3ccccc3)c2c1O` [ISOMESUOL] gave a GI50 (SF-268) of 0.6 µg/mL (≈ 1.53 µM), a GI50 (MCF7) of 0.7 µg/mL (≈ 1.78 µM) and a GI50 (NCI-H460) of 0.6 µg/mL (≈ 1.53 µM).

Compound `COc1c(C(=O)CC(C)C)c(O)c(CC=C(C)C)c2oc(=O)cc(-c3ccccc3)c12` has a GI50 (SF-268) of 0.4 µg/mL (≈ 0.951 µM), a GI50 (MCF7) of 0.4 µg/mL (≈ 0.951 µM) and a GI50 (NCI-H460) of 0.5 µg/mL (≈ 1.19 µM).

`CCC(C)C(=O)c1c2c(c3oc(=O)cc(-c4ccccc4)c3c1O)C[C@@H](C(C)(C)O)O2` (some centres not stated) gave a GI50 (SF-268) of 4.8 µg/mL (≈ 11.4 µM), a GI50 (MCF7) of 3.4 µg/mL (≈ 8.05 µM) and a GI50 (NCI-H460) of 4.4 µg/mL (≈ 10.4 µM).

For `CC(C)=CCc1c(O)c(C(=O)CC(C)C)c(O)c2c(-c3ccccc3)cc(=O)oc12` [MAMMEISIN], the GI50 (SF-268) was 0.1 µg/mL (≈ 0.246 µM), the GI50 (MCF7) was 0.2 µg/mL (≈ 0.492 µM) and the GI50 (NCI-H460) was 0.2 µg/mL (≈ 0.492 µM).

In the case of `CC(C)CC(=O)c1c2c(c3oc(=O)cc(-c4ccccc4)c3c1O)C=CC(C)(C)O2` [MAMMEIGIN], the GI50 (SF-268) is reported as > 10 µg/mL, the GI50 (MCF7) is reported as > 10 µg/mL and the GI50 (NCI-H460) is reported as > 10 µg/mL.

`CC(C)=CCc1c(O)c(C(=O)CC(C)C)c2oc(=O)cc(-c3ccccc3)c2c1O` [ISOMAMMEISIN] was tested, and the GI50 (SF-268) was 0.6 µg/mL (≈ 1.48 µM), the GI50 (MCF7) was 0.7 µg/mL (≈ 1.72 µM) and the GI50 (NCI-H460) was 0.8 µg/mL (≈ 1.97 µM).

In the case of `CCC(C)C(=O)c1c(O)c(CC=C(C)C)c2oc(=O)cc(-c3ccccc3)c2c1O` (configuration not stated), the GI50 (SF-268) is reported as 0.1 µg/mL (≈ 0.246 µM), the GI50 (MCF7) is reported as 0.2 µg/mL (≈ 0.492 µM) and the GI50 (NCI-H460) is reported as 0.1 µg/mL (≈ 0.246 µM).

`CC1(C)CCc2c(cc(O)c3c(-c4ccccc4)cc(=O)oc23)O1` was tested, and the GI50 (SF-268) was 7.8 µg/mL (≈ 24.2 µM), the GI50 (MCF7) was 5.7 µg/mL (≈ 17.7 µM) and the GI50 (NCI-H460) was 6.7 µg/mL (≈ 20.8 µM).

With `CCC(C)C(=O)c1c(O)c(CC=C(C)C)c(O)c2c(-c3ccccc3)cc(=O)oc12` (configuration not stated) the GI50 (SF-268) was 0.1 µg/mL (≈ 0.246 µM), the GI50 (MCF7) was 0.2 µg/mL (≈ 0.492 µM) and the GI50 (NCI-H460) was 0.3 µg/mL (≈ 0.738 µM).

With `CC(C)=CCc1c(O)c(C(=O)C(C)C)c(O)c2c(-c3ccccc3)cc(=O)oc12` [MESUOL] the GI50 (SF-268) was 0.1 µg/mL (≈ 0.255 µM), the GI50 (MCF7) was 0.2 µg/mL (≈ 0.51 µM) and the GI50 (NCI-H460) was 0.3 µg/mL (≈ 0.764 µM).

`CC(C)CC(=O)c1c(O)cc(O)c2c(-c3ccccc3)cc(=O)oc12` [ISODISPAR B] was tested, and the GI50 (SF-268) was 1.8 µg/mL (≈ 5.32 µM), the GI50 (MCF7) was 1.5 µg/mL (≈ 4.43 µM) and the GI50 (NCI-H460) was 1.9 µg/mL (≈ 5.62 µM).

Compound `CC(C)C(=O)c1c2c(c3oc(=O)cc(-c4ccccc4)c3c1O)C[C@@H](C(C)(C)O)O2` [MESUOL CYCLO F] has a GI50 (SF-268) of 6.4 µg/mL (≈ 15.7 µM), a GI50 (MCF7) of 5.8 µg/mL (≈ 14.2 µM) and a GI50 (NCI-H460) of 6.1 µg/mL (≈ 14.9 µM).

`CCC(C)C(=O)c1c2c(c3oc(=O)cc(-c4ccccc4)c3c1O)C=CC(C)(C)O2` (configuration not stated) was tested, and the GI50 (SF-268) was > 10 µg/mL, the GI50 (MCF7) was 9.6 µg/mL (≈ 23.7 µM) and the GI50 (NCI-H460) was > 10 µg/mL.

`CC(C)CC(=O)c1c2c(c3oc(=O)cc(-c4ccccc4)c3c1O)C[C@@H](C(C)(C)O)O2` [CYCLOMAMMEISIN] gave a GI50 (SF-268) of 5.2 µg/mL (≈ 12.3 µM), a GI50 (MCF7) of 4.2 µg/mL (≈ 9.94 µM) and a GI50 (NCI-H460) of 4.6 µg/mL (≈ 10.9 µM).

`C=C(C)C(O)Cc1c(O)c(C(=O)CC(C)C)c(O)c2c(-c3ccccc3)cc(=O)oc12` (configuration not stated) [DISPARINOL A] gave a GI50 (SF-268) of 0.5 µg/mL (≈ 1.18 µM), a GI50 (MCF7) of 0.9 µg/mL (≈ 2.13 µM) and a GI50 (NCI-H460) of 0.6 µg/mL (≈ 1.42 µM).

Work on `CC(=O)Oc1c(C(=O)CC(C)C)c(OC(C)=O)c2c(-c3ccccc3)cc(=O)oc2c1CC=C(C)C` [MAMMEISIN DIACETATE] yielded a GI50 (SF-268) of 0.5 µg/mL, a GI50 (MCF7) of 0.6 µg/mL and a GI50 (NCI-H460) of 0.6 µg/mL.

With `CC(C)C(=O)c1c2c(c3oc(=O)cc(-c4ccccc4)c3c1O)C=CC(C)(C)O2` [MESUAGIN] the GI50 (SF-268) was > 10 µg/mL, the GI50 (MCF7) was > 10 µg/mL and the GI50 (NCI-H460) was > 10 µg/mL.
